Legend:
Format in all cases: functional, cell-based
[1] = test system: HT-29; assay: Cytotoxicity against human HT-29 cells assessed as inhibition of cell viability incubated for 72 hrs by CellTiter-blue cell viability assay; settings: HT-29, 72 h
[2] = test system: MDA-MB-231; assay: Cytotoxicity against human MDA-MB-231 cells assessed as inhibition of cell viability incubated for 72 hrs by CellTiter-blue cell viability assay; settings: MDA-MB-231, 72 h
[3] = test system: MDA-MB-435; assay: Cytotoxicity against human MDA-MB-435 cells assessed as inhibition of cell viability incubated for 72 hrs by CellTiter-blue cell viability assay; settings: MDA-MB-435, 72 h
[4] = test system: OVCAR-3; assay: Cytotoxicity against human OVCAR-3 cells assessed as inhibition of cell viability incubated for 72 hrs by CellTiter-blue cell viability assay; settings: OVCAR-3, 72 h

| Compound | IC50 [1] [nM] | IC50 [2] [nM] | IC50 [3] [nM] | IC50 [4] [nM] |
| --- | --- | --- | --- | --- |
| COC(=O)[C@H]1[C@@H](O)[C@@]2(O)c3c(OC)cc(O[C@@H]4O[C@@H]([C@@H](O)CO)CO[C@H]4OC)cc3O[C@@]2(c2ccc(OC)cc2)[C@@H]1c1ccccc1 [2'-EPISILVESTROL] | 3 | 2 | 2 | 2 |
| COC(=O)[C@H]1[C@@H](O)[C@@]2(O)c3c(OC)cc(O[C@@H]4O[C@@H]([C@@H]5COC(C)(C)O5)CO[C@H]4OC)cc3O[C@@]2(c2ccc(OC)cc2)[C@@H]1c1ccccc1 | 37 | 20 | 26 | 38 |
| CC(=O)O[C@H]1C(=O)[C@@]2(C)[C@H]([C@H](OC(=O)c3ccccc3)[C@]3(O)C[C@H](OC(=O)[C@H](O)[C@@H](NC(=O)c4ccccc4)c4ccccc4)C(C)=C1C3(C)C)[C@]1(OC(C)=O)CO[C@@H]1C[C@@H]2O [PACLITAXEL] |  |  | 5 | 12 |
| COC(=O)[C@H]1[C@@H](O)[C@@]2(O)c3c(OC)cc(O[C@@H]4O[C@@H]([C@@H](O)CO)CO[C@@H]4OC)cc3O[C@@]2(c2ccc(OC)cc2)[C@@H]1c1ccccc1 | 450 | 210 | 250 | 210 |
| COC(=O)[C@H]1[C@@H](O)[C@@]2(O)c3c(OC)cc(O[C@@H]4O[C@@H]([C@H]5COC(C)(C)O5)CO[C@H]4OC)cc3O[C@@]2(c2ccc(OC)cc2)[C@@H]1c1ccccc1 | 20 | 260 | 31 | 37 |
| COC(=O)[C@H]1[C@@H](O)[C@@]2(O)c3c(OC)cc(O[C@@H]4O[C@@H]([C@H](O)CO)CO[C@@H]4OC)cc3O[C@@]2(c2ccc(OC)cc2)[C@@H]1c1ccccc1 | 370 | 240 | 250 | 210 |
| COC(=O)[C@H]1[C@@H](O)[C@@]2(O)c3c(OC)cc(O[C@@H]4O[C@@H]([C@H](O)CO)CO[C@H]4OC)cc3O[C@@]2(c2ccc(OC)cc2)[C@@H]1c1ccccc1 [SILVESTROL] | 30 | 2 | 2 | 2 |

Source: ChEMBL document CHEMBL6103637, “Additional Bioactive Silvestrol Analogs from the Roots of Aglaia perviridis Collected in Vietnam” (J Nat Prod, 2025)
